In patent US20110111515A1, “REAGENT FOR MEASUREMENT OF REACTIVE OXYGEN” (THE UNIVERSITY OF TOKYO, priority 2008, published 2011):

Legend:
Assay type in all cases: physicochemical
[1] = Change of absorbance at maximum absorption wavelength after reaction with reactive oxygen species (Example 2); details: 10 μM dye in 0.1 M phosphate buffer; all reactive oxygen species (hydroxyl radical, peroxynitrite, hypochlorite ion, superoxide anion); FIG. 2
Description: (§1) Cy5, Cy7, Compound 2 (cyanine compound constituting the second cyanine compound residue) and Compound 3 (cyanine compound constituting the first cyanine compound residue), the latter two of which were obtained above, were reacted with hydroxyl radical, peroxynitrite, hypochlorite ion, and superoxide anion, and change of absorbance at the maximum absorption wavelength was measured. For the measurement, 10 μM solutions of Cy5, Cy7, Compound 2, and Compound 3 in 0.1 M phosphate buffer were prepared, and the measurement was performed with the prepared solutions under the following conditions.
Hydrogen peroxide and iron(II) perchlorate were added to final concentrations of 1 mM and 50 μM, respectively.
Peroxynitrite was added to a final concentration of 10 μM.
Hypochlorite ions were added to a final concentration of 10 μM.
(§2) Xanthine oxidase and xanthine were added to final concentrations of 4 mU and 33 μM, respectively.
(§3) In the graph, the test results for those reactive oxygen species are indicated in the order of Cy5, Compound 2, Cy7, and Compound 3 from the left.

[2] = Change of absorbance at maximum absorption wavelength after reaction with superoxide anion (Example 2); details: 10 μM dye in 0.1 M phosphate buffer; xanthine oxidase 4 mU, xanthine 33 μM; FIG. 2
Description: as §1, §2, §3

[3] = Oxidation potential (Ep) of cyanine dyes, saturated calomel electrode as reference; details: saturated calomel electrode (SCE) as reference electrode

Molecule	Decrease of absorbance at maximum absorption wavelength upon addition of reactive oxygen species [1]	Decrease of absorbance at maximum absorption wavelength for superoxide anion [2]	Ep [3] [V vs SCE]
CC1(C)C(/C=C/C=C/C=C2/N(CCC(=O)O)c3ccc(S(=O)(=O)O)cc3C2(C)C)=[N+](CCC(=O)O)c2ccc(S(=O)(=O)O)cc21 [Compound 2]	the smallest decrease of absorbance	no decrease of absorbance	0.658
CCN1C(=CC=CC=CC=CC2=[N+](CCCCCC(=O)O)c3ccc(S(=O)(=O)O)cc3C2(C)C)C(C)(C)c2cc(S(=O)(=O)[O-])ccc21 [Cy7, reference compound]	larger decrease of absorbance than did Cy5	–	0.476
Cy5 [reference compound]	–	–	0.516
CN1/C(=C/C=C2\CCCC(/C=C/C3=[N+](C)c4ccccc4C3(C)C)=C2SCCC(=O)O)C(C)(C)c2ccccc21 [Compound 3]	larger decrease of absorbance than did Cy7	–	0.333
